These results are taken from US20210100905A1, “APPLICATION OF COMPOUND OR TRADITIONAL CHINESE MEDICINE EXTRACT IN PREPARATION OF NUCLEIC ACID DELIVERY AGENT, AND RELATED PRODUCTS” (INSTITUTE OF BASIC MEDICAL SCIENCES CHINESE ACADEMY OF …, priority 2018, published 2021).

Structures are written as SMILES. Entries after “also recorded” stand apart in the source; their conditions may differ.

Assay [1] concerns A549 cells. The experiment in a line: Flow cytometry detection of the efficiency of nucleic acid delivery by lipid. The settings on record: boiling method, 6 hours co-incubation. The assay is classed as cell-based, human. How it is done: Experimental materials: A549 cells (purchased from the Cell Center of the Chinese Academy of Medical Sciences), FAM-sRNA (purchased from Ribobio Biotechnology Co., Ltd.), lipid No. 41, Accuri® C6 instrument (purchased from BD, USA).
Experimental methods: PGY-sRNA-6-FAM was dissolved in 100 μl water, mixed with 4 μl lipid, and prepared by boiling method. Then the mixture was dropped into A549 cells, and after 6 hours of co-incubation, the samples were collected for detection as follows: firstly wash three times with PBS, then digest with trypsin for 3 minutes and remove trypsin, wash with PBS again and then blow down the cells. The detection was performed using Accuri® C6 instrument.
Experimental Method: PGY-sRNA-6-FAM was dissolved in 100 μl water, and mixed with 4 μl lipid, and prepared into lipid-sRNA mixture by boiling method. Then, the mixture was dropped into A549 cells, and after 6 hours of co-incubation, the samples were collected and washed three times with PBS, then digested with trypsin into single cells, washed with re-suspended with PBS and then blown down for Accuri® C6 instrument detection.
Experimental Method: FAM-sRNA was dissolved in 100 μl water, and mixed with 4 μl lipid, prepared by boiling method. Then, the lipid-sRNA mixture was dropped into A549 cells, and after 6 hours of co-incubation, the samples were collected and washed three times with PBS, then digested into single cells with trypsin, re-suspended with PBS and then blown down for Accuri® C6 instrument detection.
Background: Flow cytometry measures light scatter and fluorescence of single cells or particles in a stream.

Assay [2] concerns A549 cells. The experiment in a line: Confocal fluorescence microscopy of nucleic acid delivered by lipid. The settings on record: boiling method, 4 μl lipid, 6 hours co-incubation. It is filed as cell-based, human. How it is done: Experimental materials: A549 cells (purchased from the Cell Center of the Chinese Academy of Medical Sciences), PGY-sRNA-6-Cy3 (purchased from Ribobio Biotechnology Co., Ltd.), lipid No. 41, Zeiss LSM780 (purchased from Zeiss, Germany), Alexa Fluor® 488 phalloidin (purchased from Invitrogen, USA), DAPI (purchased from Invitrogen, USA), paraformaldehyde (purchased from sigma, USA).
Experimental methods: PGY-sRNA-6-FAM was dissolved in 100 μl water, mixed with 4 μl lipid, and prepared by the boiling method. Then the mixture was dropped into A549 cells, and after 6 hours of co-incubation, the samples were washed three times with PBS, fixed with 4% paraformaldehyde, washed three times with PBS, stained with Alexa Fluor® 488 phalloidin for 30 min, washed 3 times with PBS, and stained with DAPI for 5 min, washed with PBS, and then sealed.
Experimental method: PGY-sRNA-6-FAM was dissolved in 100 μl water, and mixed with 4 μl lipid, and prepared by boiling method. Then, the mixture was dropped into A549 cells, and after 6 hours of co-incubation, the samples were washed three times with PBS, fixed with 4% paraformaldehyde, washed three times with PBS, stained with Alexa Fluor® 488 phalloidin for 30 min, washed 3 times with PBS, and stained with DAPI for 5 min, PBS washed, and then sealed.

A short description of assay [3]: In vivo delivery of single-stranded sRNA by single lipid, gavage (Example 11). Details: species or system C57 mice. The note with it: 10 μL lipid, sRNA 1 nmol each, 12 hours; for delivery of sRNA single-stranded nucleic acid into mouse blood: FIGS. 108, 112-115, oral (gavage), heating method, vs POPC and Lipofectamine RNAiMAX. How it is done: 1. Experimental animals: C57 mice, male, approximately 6 weeks old.
2. Manufacture of lipid mixture: the prepration was conducted on the basis of a dose of 10 μ1 lipid-1 nmol sRNA per mouse as follows: dissolved 1 nmol of each sRNA in 500 μl DEPC water, added 10 μl of the corresponding lipid, pipette to mix thoroughly, and then naturally cooled down after water bath for 15 min at 90° C., and administered via gavage.
1) Tissue sampling and extraction of RNA: 6 hours after gavage in mice, took 500 μl of blood from the eyeball, added 1.5 ml Trizol Reagent LS to thoroughly mix and lyse, added 3 ml Trizol Reagent (purchased from Invitrogen) to the tissue samples and homogenized until complete lysis. Tissues sampled: live/stomach/small intestine.
2) Reverse transcription of sRNA to cDNA: Reverse Transcription Kit (High-Capacity cDNA Reverse Transcription Kits, Applied Biosystems, cat. no. 4368813), was used to reverse transcribe the total RNA to cDNA, and the reverse system was as follows: template RNA (150 ng/μL) 10 μL, 10× RT buffer, 2.0 μL, 25× dNTP Mix (100 mM) 0.8 μL, random primers 2.0 μL, the Multi Scribe™ reverse Transcriptase 1.0 μL, RNase inhibitor 1.0 μL, nuclease-free H2O 3.2 μL. After a brief centrifugation, the reaction was loaded in a PCR reactor. The reaction conditions were as follows: (1) 25° C., 10 min; (2) 37° C., 120 min; (3) 85° C., 5 min; (4) 4° C., termination of the reaction. After the reaction, 20 μL RNase-free ddH2O was added to make up the final volume to 40 μL.
LightCycler 480 fluorescence quantitative PCR instrumentwas used, and the PCR reaction conditions were: 95° C. , 5 min for pre-denaturation, followed by the PCR amplification cycle: (1) 95° C., 10 s; (2) 55° C., 10 s; (3) 72° C., 20 s; a total of 40 cycles; 40° C. for 10 s in the end to cool down. The forward primer and reverse primer of the amplification reaction were designed and synthesized by Beijing Qing Ke New Industrial Biotechnology Co., Ltd. (U6 F primer: GCGCGTCGTGAAGCGTTC (SEQ ID NO: 23), U6 R primer: GTGCAGGGTCCGAGGT (SEQ ID NO: 24)).
3) The relative expression amount was calculated by the 2-ΔCt method.
5) Treatment group of single lipid and nucleic acid mixture: a mixture of 10 μL of single lipid (No. 41) with single-stranded sRNA mixure solution (PGY-sRNA-23, PGY-sRNA-26 and PGY-sRNA-32, 1 nmol each) was treated by heating method and then given to mice via intragastric administration.
2. 12 hours after intragastric administration, the blood was taken from the eyeball, and various tissues (liver/stomach/small intestine) was sampled. TRIzol was used for full lysis and the RNA was extracted to detect the amount of entry.

Consider `CCCCCC/C=C\CCCCCCCC(=O)O[C@H](COC(=O)CCCCCCCCCCCCCCC)COP(=O)(O)OCCN` [No. 38, (2-aminoethoxy) [(2R)-2-[(9Z)-hexadec-9-enoyloxy]-3-(hexadecanoyloxy)propoxy] phosphinic acid], for which the “efficiency in delivering PGY-sRNA-6 single-stranded RNA (flow cytometry)” value in assay [1] (4 μl lipid) is 72.5%. The “efficiency of PGY-sRNA-6 single-stranded RNA delivery relative to positive control RNAiMAX (flow cytometry)” value in assay [1] was “close to that of the positive control RNAiMAX”. Besides, the “entry of PGY-sRNA-6-Cy3 observed under confocal microscopy” value (from here on “entry of PGY-sRNA-6-Cy3 observed”) in assay [2] is “could effectively deliver double-stranded nucleic acid into A549 cells”. For the same compound, the “delivery of sRNA single-stranded nucleic acid into mouse blood” value in assay [3] was “could effectively deliver sRNA single-stranded nucleic acid into mouse blood via oral administration; also recorded: the delivery effect was better than POPC and Lipofectamine RNAiMAX”.

As for `CCCCCCCC/C=C\CCCCCCCCCCCC(=O)O[C@H](COC(=O)CCCCCCCCCCCCCCC)COP(=O)(O)OCCN` [No. 40, (2-aminoethoxy) [(2R)-2-[(13Z)-docos-13-enoyloxy]-3-(hexadecanoyloxy)propoxy] phosphinic acid], in assay [2], the “entry of PGY-sRNA-6-Cy3 observed” value is recorded as “could effectively deliver single-stranded RNA into A549 cells”. The “delivery of sRNA single-stranded nucleic acid into mouse blood” value in assay [3] was “could effectively deliver sRNA single-stranded nucleic acid into mouse blood via oral administration; also recorded: the delivery effect was better than POPC and Lipofectamine RNAiMAX”.

Turning to `CCCCCCCCCCCCCCCCCCC[C@@H](O)[C@@H](N)CO` [No. 41, Sphinganine (d22:0)], in assay [1] (4 μl lipid), the “efficiency in delivering PGY-sRNA-6 double-stranded RNA (flow cytometry)” value turned out to be 96.7% and the “efficiency in delivering PGY-sRNA-6 single-stranded RNA (flow cytometry)” value was determined as 94.1%. In assay [2], the “entry of PGY-sRNA-6-Cy3 observed” value was “could effectively deliver double-stranded nucleic acid into A549 cells”. Besides, the “delivery of sRNA single-stranded nucleic acid into mouse stomach” value in assay [3] (FIG. 109, gavage) was “could effectively deliver sRNA single-stranded nucleic acid into the mouse stomach via oral administration to protect sRNA from degradation”. For the same compound, the “delivery of sRNA single-stranded nucleic acid into mouse small intestine” value in assay [3] (FIG. 110, gavage) was “could effectively deliver sRNA single-stranded nucleic acid into the mouse small intestine via oral administration to protect sRNA from degradation”. Also, in assay [3] (FIG. 111, gavage), the “delivery of sRNA single-stranded nucleic acid into mouse liver” value is listed as “could effectively deliver sRNA single-stranded nucleic acid into the mouse liver via oral administration to protect sRNA from degradation”. For the same compound, the “delivery of sRNA single-stranded nucleic acid into mouse blood” value in assay [3] is “could effectively deliver sRNA single-stranded nucleic acid into the mouse blood via oral administration; also recorded: the delivery effect was better than POPC and Lipofectamine RNAiMAX”.

Turning to `CCCCCCCC/C=C\CCCCCCCCCCCCCC(=O)O[C@H](COC(=O)CCCCCCCCCCCCCC)COP(=O)(O)OCCN` [No. 64, 1-pentadecanoyl-2-nervonoyl-sn-glycero-3-phospho-ethanolamine], the “efficiency of PGY-sRNA-6 single-stranded RNA delivery relative to positive control RNAiMAX (flow cytometry)” value in assay [1] is recorded as “½”. Further, the “entry of PGY-sRNA-6-Cy3 observed” value in assay [2] is “could effectively deliver single-stranded RNA into A549 cells”. In addition, in assay [3], the “delivery of sRNA single-stranded nucleic acid into mouse blood” value was “could effectively deliver sRNA single-stranded nucleic acid into mouse blood via oral administration; also recorded: the delivery effect was better than POPC and Lipofectamine RNAiMAX”.
